This note sets out measurements from ChEMBL document CHEMBL2380242, “Discovery of novel orally bioavailable GPR40 agonists” (Bioorg Med Chem Lett, 2013).

pEC50: −log10 of the molar value. Active and inactive are the calls of the source.

In data set [1] the target is T1, Free fatty acid receptor 1 (Homo sapiens, UniProt O14842). Put plainly: Agonist activity at human GPR40 transfected in CHO cells by calcium flux assay. It is filed as functional, cell-based.
The target of data set [2] is T1, Free fatty acid receptor 1. The data set is described as follows: Agonist activity at human GPR40 transfected in CHO cells by calcium flux assay relative to TAK-875. The format is functional, cell-based. A general note: Calcium flux is commonly read through the fluorescence of an indicator in the cells.
A further data set deals with Rattus norvegicus. The data set is described as follows: Volume of distribution in rat at 5 mg/kg, po. To be noted: in vivo. More on the design: dose 5 mg/kg, route oral. The format is ADME, organism-based.
Data set [3] relates to Mus musculus. The data set is described as follows: Antidiabetic activity in high fat feasted ICR mouse assessed as inhibition of blood glucose excursion at 50 mg/kg, po administered 15 mins prior to dextrose challenge measured for 120 mins by OGTT relative to control. It is filed as functional.
Data set [4] is described as follows: AUC in rat at 5 mg/kg, po. It is filed as ADME, organism-based. More on the design: dose 5 mg/kg, route oral. Particulars: plasma.
Data set [5] can be described thus: Plasma clearance in rat at 5 mg/kg, po. The format is ADME, organism-based. More on the design: dose 5 mg/kg, route oral.
Data set [6] is described as follows: Half life in rat at 5 mg/kg, po. It is filed as ADME, organism-based. Set-up: dose 5 mg/kg, route oral. Particulars: in vivo.
A short description of data set [7]: Cmax in rat at 5 mg/kg, po. To be noted: in vivo. Set-up: dose 5 mg/kg, route oral. It is filed as ADME, organism-based.
The target in data set [8] is Free fatty acid receptor 1 (Rattus norvegicus) (UniProt Q8K3T4). The data set is described as follows: Agonist activity at GPR40 in rat INS-1 cells assessed as glucose-stimulated insulin secretion relative to TAK-875. It is filed as cell-based. To be noted: INS1.
Free fatty acid receptor 1 (Rattus norvegicus), sequence (Q8K3T4 whole entry): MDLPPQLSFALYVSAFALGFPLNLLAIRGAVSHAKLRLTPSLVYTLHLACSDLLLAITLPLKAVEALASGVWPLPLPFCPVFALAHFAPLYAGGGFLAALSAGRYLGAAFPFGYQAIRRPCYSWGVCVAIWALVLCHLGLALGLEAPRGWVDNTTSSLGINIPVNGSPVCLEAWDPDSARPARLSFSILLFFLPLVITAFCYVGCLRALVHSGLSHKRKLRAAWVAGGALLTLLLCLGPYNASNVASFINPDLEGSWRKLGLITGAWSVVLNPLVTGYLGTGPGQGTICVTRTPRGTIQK
Data set [9] has as its system Mus musculus. Put plainly: Antidiabetic activity in high fat feasted ICR mouse assessed as reduction of blood glucose excursion at 50 mg/kg, po administered 15 mins prior to dextrose challenge measured for 120 mins by OGTT. The format is functional, organism-based. Set-up: dose 50 mg/kg.

T1 sequence (O14842 whole entry): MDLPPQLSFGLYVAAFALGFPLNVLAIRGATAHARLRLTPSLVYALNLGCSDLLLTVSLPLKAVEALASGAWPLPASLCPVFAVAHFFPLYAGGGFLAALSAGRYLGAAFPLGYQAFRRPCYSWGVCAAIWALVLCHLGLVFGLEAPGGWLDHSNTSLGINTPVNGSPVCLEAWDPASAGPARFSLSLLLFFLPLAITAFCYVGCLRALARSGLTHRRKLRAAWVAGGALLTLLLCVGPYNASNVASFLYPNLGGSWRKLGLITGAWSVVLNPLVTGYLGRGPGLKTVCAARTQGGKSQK

For the compound `O=C(O)C[C@@H]1COc2cc3c(cc21)OC[C@H](c1cccc(C(F)(F)F)c1)O3`, the pEC50 (usually the negative decadic logarithm of the EC50, by convention in mol/L) in data set [1] was 7.52. The Emax (commonly the maximal effect, on the per cent scale that the assay sets) in data set [2] worked out at 55.6%.

Turning to `O=C(O)C[C@@H]1COc2cc3c(cc21)OCC(c1cc(F)cc(Br)c1)O3` (stereo partly specified), the pEC50 in data set [1] was 6.98. For the same compound, the Emax in [2] was 38%.

Consider `O=C(O)C[C@@H]1COc2cc3c(cc21)OCC(c1cccc(-c2ccc(F)cc2Cl)c1)O3` (stereo partly specified), for which the pEC50 in data set [1] was 7.13. Further, the Emax in data set [2] was determined as 103%.

Regarding `Cc1ccccc1-c1cccc([C@@H]2COc3cc4c(cc3O2)OC[C@H]4CC(=O)O)c1`, the pEC50 in data set [1] was 7.41. Also, in [2], the Emax amounted to 76%.

`O=C(O)C[C@@H]1COc2cc3c(cc21)OCC(c1cccc(Br)c1)O3` (stereo partly specified): the pEC50 in data set [1] was 7.26. For the same compound, the Emax in data set [2] worked out at 89%.

On to `Cc1cccc(C)c1-c1cccc([C@@H]2COc3cc4c(cc3O2)OC[C@H]4CC(=O)O)c1`, for which the pEC50 in data set [1] is 7.28. In data set [2], the Emax turned out to be 85%.

For the compound `Cc1cc(OCCCS(C)(=O)=O)cc(C)c1-c1cccc([C@H]2COc3cc4c(cc3O2)OC[C@H]4CC(=O)O)c1`, the pEC50 in data set [1] was 6.55. Also, the Emax in [2] is 111%.

On to `Cc1cccc(C)c1-c1cccc([C@H]2COc3cc4c(cc3O2)OC[C@H]4CC(=O)O)c1`, for which the pEC50 in [1] was 7.52. For the same compound, the Emax in data set [2] was determined as 72%.

On to `O=C(O)C[C@@H]1COc2cc3c(cc21)OC[C@@H](c1cccc(-c2ccccc2Cl)c1)O3`, for which, in data set [1], the pEC50 was 7.18. Besides, the Emax in data set [2] was found to be 99%.

Consider `O=C(O)C[C@@H]1COc2cc3c(cc21)OC[C@@H](c1ccc(Cl)c(Cl)c1)O3`, for which, in the data set on Rattus norvegicus, the Vd was found to be 0.25 L/kg. The inhibition in vivo (usually the drop in the measured response relative to a control, in per cent) at 50 mg/kg in the data set with Mus musculus [3] is 4.9%. In addition, the AUC (commonly concentration integrated over time) in data set [4] came to 337 µg·h/mL. Besides, in data set [1], the pEC50 is 7.80. For the same compound, in data set [5], the CL/F (in general, clearance divided by bioavailability, as obtained after extravascular dosing) was 0.167 mL/min/kg. The half-life (commonly the time needed for the level to fall by half in the phase considered) in [6] is 798 min. In addition, the Cmax (commonly the maximum level reached in the sampled fluid or tissue) in data set [7] was found to be 18900 ng/mL. In addition, the Emax in data set [8] is 46.8%; in data set [2] it was 129%.

In the case of `Cc1cc(OCCCS(C)(=O)=O)c(F)c(C)c1-c1cccc([C@@H]2COc3cc4c(cc3O2)OC[C@H]4CC(=O)O)c1`, in data set [1], the pEC50 was 7.08. Besides, in [2], the Emax was 83%.

Turning to `Cc1cc(OCCCS(C)(=O)=O)cc(C)c1-c1ccc(F)c([C@@H]2COc3cc4c(cc3O2)OC[C@H]4CC(=O)O)c1`, the pEC50 in [1] is 7.33. Further, the Emax in data set [2] is 87%. The outcome with Mus musculus [9] was inactive.

With `O=C(O)C[C@@H]1COc2cc3c(cc21)OC[C@H](c1cccc(Cl)c1)O3`, the pEC50 in data set [1] was 6.66. The Emax in [2] stood at 72%.

On to `CS(=O)(=O)CCCOc1ccc(-c2cccc([C@@H]3COc4cc5c(cc4O3)OC[C@H]5CC(=O)O)c2)c(Cl)c1`, for which the pEC50 in data set [1] is 7.02. For the same compound, the Emax in data set [2] was found to be 89%.

Take `O=C(O)C[C@@H]1COc2cc3c(cc21)OCC(c1cc(F)cc(C(F)(F)F)c1)O3` (stereo partly specified): the pEC50 in data set [1] was 7.20. In addition, the Emax in data set [2] was found to be 79%.

With `Cc1cc(F)ccc1-c1cccc(C2COc3cc4c(cc3O2)OC[C@H]4CC(=O)O)c1` (stereo partly specified), the pEC50 in data set [1] is 7.44. The Emax in [2] was 77%.

Take `O=C(O)C[C@@H]1COc2cc3c(cc21)OCC(c1cccc(-c2ccccc2)c1)O3` (stereo partly specified): in data set [1], the pEC50 was 7.18. The Emax in data set [2] was determined as 105%.

For the compound `CS(=O)(=O)CCCOc1ccc(-c2cc(C3COc4cc5c(cc4O3)OC[C@H]5CC(=O)O)ccc2F)c(Cl)c1` (stereo partly specified), the pEC50 in data set [1] was 6.90. Further, the Emax in data set [2] was found to be 66%.

For the compound `O=C(O)C[C@@H]1COc2cc3c(cc21)OC[C@H](c1ccc(Cl)c(Cl)c1)O3`, the pEC50 in [1] is 6.72. In addition, in [2], the Emax was 61%.

As for `CS(=O)(=O)CCCOc1ccc(-c2cccc([C@H]3COc4cc5c(cc4O3)OC[C@H]5CC(=O)O)c2)c(Cl)c1`, the pEC50 in data set [1] is 6.84. In addition, in data set [2], the Emax came out at 71%.

On to `O=C(O)C[C@@H]1COc2cc3c(cc21)OCC(c1cccc(C2CC2)c1)O3` (stereo partly specified), for which the pEC50 in data set [1] is 7.44. The Emax in [2] worked out at 66%.

In the case of `CS(=O)(=O)CCCOc1ccc(-c2cc(F)cc(C3COc4cc5c(cc4O3)OC[C@H]5CC(=O)O)c2)c(Cl)c1` (stereo partly specified), the pEC50 in [1] is 6.69. For the same compound, the Emax in data set [2] was 69%.

`CS(=O)(=O)CCCOc1ccc(-c2ccc(F)c(C3COc4cc5c(cc4O3)OC[C@H]5CC(=O)O)c2)c(Cl)c1` (stereo partly specified): the pEC50 in [1] is 7.25. Besides, the Emax in data set [2] was 102%.

As for `Cc1cc(OCCCS(C)(=O)=O)c(F)c(C)c1-c1cccc([C@H]2COc3cc4c(cc3O2)OC[C@H]4CC(=O)O)c1`, in data set [1], the negative-log EC50 (pEC50) is 6.92. Besides, in data set [2], the maximum response (Emax) stood at 77%.

Turning to `Cc1cc(OCCCS(C)(=O)=O)ccc1-c1cccc(C2COc3cc4c(cc3O2)OC[C@H]4CC(=O)O)c1` (stereo partly specified), the pEC50 in [1] is 6.91. Moreover, the Emax in data set [2] is 53%.

As for `Cc1ccc(-c2cccc(C3COc4cc5c(cc4O3)OC[C@H]5CC(=O)O)c2)c(C)c1` (stereo partly specified), in [1], the pEC50 was 7.41. Moreover, the Emax in data set [2] was determined as 90%.

As for `Cc1ccc(C)c(-c2cccc(C3COc4cc5c(cc4O3)OC[C@H]5CC(=O)O)c2)c1` (stereo partly specified), in [1], the pEC50 was 7.06. Moreover, the Emax in data set [2] amounted to 89%.

Regarding `O=C(O)C[C@@H]1COc2cc3c(cc21)OC[C@H](c1cccc(Br)c1)O3`, the pEC50 in data set [1] was 6.95. Moreover, in data set [2], the Emax amounted to 105%.

As to `Cc1cc(OCCCS(C)(=O)=O)cc(C)c1-c1ccc(F)c([C@H]2COc3cc4c(cc3O2)OC[C@H]4CC(=O)O)c1`, in data set [1], the pEC50 is 7.17. Further, the Emax in [2] turned out to be 83%. In the data set on Mus musculus [9], the outcome was Active.

Regarding `O=C(O)C[C@@H]1COc2cc3c(cc21)OCC(c1cccc(-c2ccccc2C(F)(F)F)c1)O3` (stereo partly specified), the pEC50 in [1] was 7.13. Moreover, the Emax in data set [2] was found to be 104%.

For the compound `Cc1cc(C)cc(-c2cccc(C3COc4cc5c(cc4O3)OC[C@H]5CC(=O)O)c2)c1` (stereo partly specified), in data set [1], the pEC50 was 6.88. In addition, the Emax in data set [2] is 68%.

Take `Cc1cc(C)c(-c2cccc(C3COc4cc5c(cc4O3)OC[C@H]5CC(=O)O)c2)c(C)c1` (stereo partly specified): in [1], the pEC50 is 7.21. Also, the Emax in data set [2] worked out at 103%.

Regarding `O=C(O)C[C@@H]1COc2cc3c(cc21)OCC(c1ccc(Br)cc1)O3` (stereo partly specified), the pEC50 in [1] was below 5.00. The maximal effect (Emax) in data set [2] was 38%.

As to `Cc1cc(OCCCS(C)(=O)=O)cc(C)c1-c1cccc([C@@H]2COc3cc4c(cc3O2)OC[C@H]4CC(=O)O)c1`, the pEC50 in data set [1] is 7.25. The Emax in [2] stood at 124%.

On to `O=C(O)C[C@@H]1COc2cc3c(cc21)OC[C@H](c1cccc(-c2ccccc2Cl)c1)O3` (mixture of isomers), for which the pEC50 in data set [1] is 7.25. In addition, the Emax in data set [2] was found to be 97%.

Take `O=C(O)C[C@@H]1COc2cc3c(cc21)OCC(c1cccc(-c2ccccc2F)c1)O3` (stereo partly specified): in [1], the pEC50 is 7.14. Further, in data set [2], the Emax was found to be 115%.
